One test addresses T1, ARG1 (Homo sapiens, UniProt P05089).
T1 construct: recombinant human ARG1 (E. coli)
T1 sequence (P05089 1-322): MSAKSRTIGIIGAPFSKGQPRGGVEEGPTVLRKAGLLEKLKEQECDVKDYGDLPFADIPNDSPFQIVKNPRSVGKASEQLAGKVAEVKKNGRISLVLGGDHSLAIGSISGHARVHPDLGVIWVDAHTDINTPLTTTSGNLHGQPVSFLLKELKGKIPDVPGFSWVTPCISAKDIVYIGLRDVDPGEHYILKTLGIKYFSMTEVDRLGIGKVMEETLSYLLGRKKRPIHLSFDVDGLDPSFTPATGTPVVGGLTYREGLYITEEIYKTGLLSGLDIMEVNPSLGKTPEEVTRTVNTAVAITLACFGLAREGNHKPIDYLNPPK
Briefly: colorimetric urea-production arginase assay with recombinant enzyme. It is filed as biochemical.

The next test deals with T2, ARG2 (Homo sapiens, UniProt P78540).
T2 construct: recombinant human ARG2 (E. coli)
T2 sequence (P78540 23-354): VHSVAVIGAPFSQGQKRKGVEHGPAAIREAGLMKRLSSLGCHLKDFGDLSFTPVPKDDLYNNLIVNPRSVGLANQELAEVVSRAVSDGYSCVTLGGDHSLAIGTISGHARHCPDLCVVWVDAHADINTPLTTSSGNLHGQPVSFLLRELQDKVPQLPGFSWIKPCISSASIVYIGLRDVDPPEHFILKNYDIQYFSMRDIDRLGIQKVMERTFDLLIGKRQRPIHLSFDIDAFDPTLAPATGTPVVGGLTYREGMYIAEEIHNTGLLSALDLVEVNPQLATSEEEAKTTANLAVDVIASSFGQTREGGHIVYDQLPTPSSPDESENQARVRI
Described as above. In kind it is biochemical.

As for `NNc1ccccc1` [PHZ, phenylhydrazine], the results for the IC50 at ARG1 and on ARG2 were 1020 µM and 61 µM, respectively.

Source of the values: publication PMC8664950, “Potent but transient immunosuppression of T-cells is a general feature of CD71^+ erythroid cells” (Communications Biology, 2021).
